Target: T1, P2X7 receptor (UniProt Q99572)
T1 sequence (Q99572 1-595): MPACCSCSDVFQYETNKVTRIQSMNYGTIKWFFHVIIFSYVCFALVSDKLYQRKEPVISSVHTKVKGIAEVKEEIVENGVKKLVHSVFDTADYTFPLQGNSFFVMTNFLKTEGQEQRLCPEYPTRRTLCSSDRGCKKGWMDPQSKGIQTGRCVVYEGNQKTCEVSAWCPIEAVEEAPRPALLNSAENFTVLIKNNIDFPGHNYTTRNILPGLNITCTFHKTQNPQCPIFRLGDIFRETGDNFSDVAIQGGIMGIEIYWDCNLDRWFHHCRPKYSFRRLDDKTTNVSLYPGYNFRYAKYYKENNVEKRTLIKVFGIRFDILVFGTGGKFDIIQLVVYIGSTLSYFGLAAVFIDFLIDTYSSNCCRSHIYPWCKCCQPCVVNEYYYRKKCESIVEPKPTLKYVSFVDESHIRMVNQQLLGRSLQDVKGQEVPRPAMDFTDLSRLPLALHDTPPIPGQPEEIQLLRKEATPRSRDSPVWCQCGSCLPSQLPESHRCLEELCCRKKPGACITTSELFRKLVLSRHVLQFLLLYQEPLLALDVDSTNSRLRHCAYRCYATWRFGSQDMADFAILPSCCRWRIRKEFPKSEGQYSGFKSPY
Test: pKi of Table 1 (assay not stated)
Format: cell-based
Experimental: Intracellular Calcium Flux (FLIPR) Assay
Stock solutions of compounds were prepared from powders as a 10 mM DMSO stock solution. These solutions were stored at RT during the two week period of these experiments to prevent freeze-thaw of the DMSO stocks. The DMSO stocks were added to the appropriate assay buffer at a concentration of 10 μM, and then diluted serially to the final concentrations that were tested. […] The aqueous solutions of compounds as well as ATP (Sigma A7699) and BzATP (Sigma B6396) were prepared fresh for each day of experiment.
1321N1 cells stably expressing the full length human P2X7 gene (1321N1-hP2X7) and HEK293 cells stably expressing the full length rat P2X7 gene (HEK293-rP2X7) were obtained from the Roche Cell Culture Facility. 1321N1-hP2X7 cells were grown in Dulbecco's Modified Eagle's Medium (DMEM) high glucose supplemented with 10% FBS and 250 μg/mL G418. HEK293-rP2X7 cells were grown in DMEM/F-12 supplemented with 10% FBS, 1 mM CaCl2, 2 mM MgCl2, 2 mM L-Glutamine and 500 μg/ml G418. Cells were split such that they never became>70% confluent.
On the day prior to the experiment, 1321N1-hP2X7 or HEK293-rP2X7 cells were released into suspension with calcium-free PBS+Versene and washed by centrifugation with calcium-free PBS to remove the Versene. Cells were resuspended in growth medium at a density of 2.5×10^5 cells/mL and seeded into black walled, clear bottom 96 well plates (50,000 cells/well) approximately 18 hr prior to intracellular calcium flux experiments.
On the day of the experiment, plates were washed with FLIPR buffer (calcium- and magnesium-free Hank's Balanced Salt Solution (HBSS) supplemented with 10 mM Hepes, 2.5 mM probenecid and 2 mM calcium chloride) using a BIO-TEK 96 channel plate washer and incubated with […] fluo-3 dye at 37° C. for one hr. The dye was then removed by plate washing and the cells were allowed to equilibrate for 20 min at room temperature with antagonist or vehicle (FLIPR buffer). Agonist (100 μM BzATP final concentration for hP2X7; 5 μM BzATP final concentration or rP2X7) was added online with the FLIPR and fluorescence measurements made at 1 sec intervals for 60 sec followed by 3 sec intervals for a further 4 min (5 min total). A final addition of 5 μM ionomycin was made and the maximal BzATP-evoked fluorescence normalized to the maximal ionomycin-evoked fluorescence.

Row | SMILES | pKi
1 | O=C1CC(c2cccc(F)c2)C(C(=O)Nc2cccc3[nH]ccc23)=CN1 (stereo not shown) [Compound 1, 4-(3-Fluoro-phenyl)-6-oxo-1,4,5,6-tetrahydro-pyridine-3-carboxylic acid (1H-indol-4-yl)-amide] | 5.86
2 | O=C1CC(c2cccc(F)c2)C(C(=O)Nc2ccc3cc[nH]c3c2)=CN1 (stereo not shown) [Compound 2, 4-(3-Fluoro-phenyl)-6-oxo-1,4,5,6-tetrahydro-pyridine-3-carboxylic acid (1H-indol-6-yl)-amide] | 5.24
3 | O=C1C[C@@H](c2cccc(F)c2)C(C(=O)Nc2ccc3ncccc3c2Br)=CN1 [Compound 4, (S)-4-(3-Fluoro-phenyl)-6-oxo-1,4,5,6-tetrahydro-pyridine-3-carboxylic acid (5-bromo-quinolin-6-yl)-amide] | 6.953
4 | O=C1C[C@@H](c2ccc(F)cc2)C(C(=O)Nc2cccc3ncccc23)=CN1 [Compound 5, (S)-4-(4-Fluoro-phenyl)-6-oxo-1,4,5,6-tetrahydro-pyridine-3-carboxylic acid quinolin-5-ylamide] | 5.345
5 | O=C1C[C@@H](c2ccc(F)cc2)C(C(=O)Nc2ccc3ncccc3c2Br)=CN1 [Compound 6, (S)-4-(4-Fluoro-phenyl)-6-oxo-1,4,5,6-tetrahydro-pyridine-3-carboxylic acid (5-bromo-quinolin-6-yl)-amide] | 7.135
6 | CCc1cc2ncccc2cc1NC(=O)C1=CNC(=O)C[C@H]1c1ccc(F)cc1 [Compound 7, (S)-4-(4-Fluoro-phenyl)-6-oxo-1,4,5,6-tetrahydro-pyridine-3-carboxylic acid (7-ethyl-quinolin-6-yl)-amide] | 6.673
7 | CCc1c(NC(=O)C2=CNC(=O)C[C@H]2c2ccc(F)cc2)ccc2ncccc12 [Compound 8, (S)-4-(4-Fluoro-phenyl)-6-oxo-1,4,5,6-tetrahydro-pyridine-3-carboxylic acid (5-ethyl-quinolin-6-yl)-amide] | 7.69
8 | Cc1cc2ccn(CCO)c2cc1NC(=O)C1=CNC(=O)C[C@H]1c1ccc(F)cc1 [Compound 9, (S)-4-(4-Fluoro-phenyl)-6-oxo-1,4,5,6-tetrahydro-pyridine-3-carboxylic acid [1-(2-hydroxy-ethyl)-5-methyl-1H-indol-6-yl]-amide] | 7.71
9 | Cc1c(NC(=O)C2=CNC(=O)C[C@H]2c2cccc(F)c2)ccc2ncccc12 [Compound 10, (S)-4-(3-Fluoro-phenyl)-6-oxo-1,4,5,6-tetrahydro-pyridine-3-carboxylic acid (5-methyl-quinolin-6-yl)-amide] | 6.645
10 | O=C1C[C@@H](c2cccc(F)c2)C(C(=O)Nc2cc3c(cc2Br)CCC(=O)N3)=CN1 [Compound 11, (S)-4-(3-Fluoro-phenyl)-6-oxo-1,4,5,6-tetrahydro-pyridine-3-carboxylic acid (6-bromo-2-oxo-1,2,3,4-tetrahydro-quinolin-7-yl)-amide] | 5.415
11 | Cc1ccc2ncccc2c1NC(=O)C1=CNC(=O)C[C@H]1c1cccc(F)c1 [Compound 12, (S)-4-(3-Fluoro-phenyl)-6-oxo-1,4,5,6-tetrahydro-pyridine-3-carboxylic acid (6-methyl-quinolin-5-yl)-amide] | 7.695
12 | CN1C(=O)CCc2cc(Br)c(NC(=O)C3=CNC(=O)C[C@H]3c3ccc(F)cc3)cc21 [Compound 13, (S)-4-(4-Fluoro-phenyl)-6-oxo-1,4,5,6-tetrahydro-pyridine-3-carboxylic acid (6-bromo-1-methyl-2-oxo-1,2,3,4-tetrahydro-quinolin-7-yl)-amide] | 6.9
13 | O=C1C[C@@H](c2ccc(F)cc2)C(C(=O)Nc2cccc3cnccc23)=CN1 [Compound 14, (S)-4-(4-Fluoro-phenyl)-6-oxo-1,4,5,6-tetrahydro-pyridine-3-carboxylic acid isoquinolin-5-ylamide] | 6.425

Now from value to compound:

Row | pKi | SMILES
14 | 7.46 | Cc1ccc2c(NC(=O)C3=CNC(=O)C[C@H]3c3ccc(F)cc3)cccc2n1 [Compound 15, (S)-4-(4-Fluoro-phenyl)-6-oxo-1,4,5,6-tetrahydro-pyridine-3-carboxylic acid (2-methyl-quinolin-5-yl)-amide]
15 | 7.575 | CCc1cc2ccn(CCO)c2cc1NC(=O)C1=CNC(=O)C[C@H]1c1ccc(F)cc1 [Compound 16, (S)-4-(4-Fluoro-phenyl)-6-oxo-1,4,5,6-tetrahydro-pyridine-3-carboxylic acid [5-ethyl-1-(2-hydroxy-ethyl)-1H-indol-6-yl]-amide]
16 | 6.805 | Cc1c(NC(=O)C2=CNC(=O)C[C@H]2c2ccc(F)cc2)ccc2ncccc12 [Compound 17, (S)-4-(4-Fluoro-phenyl)-6-oxo-1,4,5,6-tetrahydro-pyridine-3-carboxylic acid (5-methyl-quinolin-6-yl)-amide]
17 | 7.16 | Cc1cc2c(cc1NC(=O)C1=CNC(=O)C[C@H]1c1ccc(F)cc1)N(C)C(=O)CC2 [Compound 18, (S)-4-(4-Fluoro-phenyl)-6-oxo-1,4,5,6-tetrahydro-pyridine-3-carboxylic acid (1,6-dimethyl-2-oxo-1,2,3,4-tetrahydro-quinolin-7-yl)-amide]
18 | 5.535 | O=C1C[C@@H](c2ccc(F)cc2)C(C(=O)Nc2cc3c(cc2Br)CCC(=O)N3CCO)=CN1 [Compound 19, (S)-4-(4-Fluoro-phenyl)-6-oxo-1,4,5,6-tetrahydro-pyridine-3-carboxylic acid [6-bromo-1-(2-hydroxy-ethyl)-2-oxo-1,2,3,4-tetrahydro-quinolin-7-yl]-amide]
19 | 6.825 | Cc1cc2ncccc2cc1NC(=O)C1=CNC(=O)C[C@H]1c1cccc(F)c1 [Compound 20, (S)-4-(3-Fluoro-phenyl)-6-oxo-1,4,5,6-tetrahydro-pyridine-3-carboxylic acid (7-methyl-quinolin-6-yl)-amide]
20 | 5.925 | O=C1C[C@@H](c2cccc(F)c2)C(C(=O)Nc2cc3c(cc2Br)OCC(=O)N3)=CN1 [Compound 21, (S)-4-(3-Fluoro-phenyl)-6-oxo-1,4,5,6-tetrahydro-pyridine-3-carboxylic acid (7-bromo-3-oxo-3,4-dihydro-2H-benzo[1,4]oxazin-6-yl)-amide]
21 | 6.905 | CN1C(=O)COc2cc(Br)c(NC(=O)C3=CNC(=O)C[C@H]3c3cccc(F)c3)cc21 [Compound 22, (S)-4-(3-Fluoro-phenyl)-6-oxo-1,4,5,6-tetrahydro-pyridine-3-carboxylic acid (7-bromo-4-methyl-3-oxo-3,4-dihydro-2H-benzo[1,4]oxazin-6-yl)-amide]
22 | 6.73 | Cc1cc2c(cc1NC(=O)C1=CNC(=O)C[C@H]1c1ccc(F)cc1)N(C)C(=O)CO2 [Compound 23, (S)-4-(4-Fluoro-phenyl)-6-oxo-1,4,5,6-tetrahydro-pyridine-3-carboxylic acid (4,7-dimethyl-3-oxo-3,4-dihydro-2H-benzo[1,4]oxazin-6-yl)-amide]
23 | 7.015 | Cc1cc2c(cc1NC(=O)C1=CNC(=O)C[C@H]1c1cccc(F)c1)N(C)C(=O)CO2 [Compound 24, (S)-4-(3-Fluoro-phenyl)-6-oxo-1,4,5,6-tetrahydro-pyridine-3-carboxylic acid (4,7-dimethyl-3-oxo-3,4-dihydro-2H-benzo[1,4]oxazin-6-yl)-amide]
24 | 6.88 | CCc1cc2c(cc1NC(=O)C1=CNC(=O)C[C@H]1c1ccc(F)cc1)N(C)C(=O)CO2 [Compound 25, (S)-4-(4-Fluoro-phenyl)-6-oxo-1,4,5,6-tetrahydro-pyridine-3-carboxylic acid (7-ethyl-4-methyl-3-oxo-3,4-dihydro-2H-benzo[1,4]oxazin-6-yl)-amide]
25 | 7.125 | CCc1cc2c(cc1NC(=O)C1=CNC(=O)C[C@H]1c1cccc(F)c1)N(C)C(=O)CO2 [Compound 26, (S)-4-(3-Fluoro-phenyl)-6-oxo-1,4,5,6-tetrahydro-pyridine-3-carboxylic acid (7-ethyl-4-methyl-3-oxo-3,4-dihydro-2H-benzo[1,4]oxazin-6-yl)-amide]

— patent US8372865B2, “Dihydropyridone amides as P2X7 modulators” (Roche Palo Alto LLC, priority 2008, dated 2013)
